Assay results published in ChEMBL document CHEMBL5608179, “Triptonide induces apoptosis and inhibits the proliferation of ovarian cancer cells by activating the p38/p53 pathway and autophagy” (Bioorg Med Chem, 2024).
Active and inactive are the calls of the source. The rule behind the calls is not given here.

What was measured:
[1] = system: SK-OV-3; experiment: Cytotoxicity against human SK-OV-3 cells assessed as cell viability measured after 48 hrs by MTT assay; format: functional, cell-based; conditions: SK-OV-3, 48 h
[2] = system: A2780; experiment: Induction of apoptosis in human A2780 cells assessed as apoptotic rate measured after 24 to 72 hrs by Annexin V-FITC/PI flow cytometry; format: functional, cell-based; conditions: dose 2-8 nM, time 24-72 hrs
[3] = system: A2780; experiment: Induction of apoptosis in human A2780 cells assessed as increase in cleaved caspase 3 level measured at 5 to 20 nM by Western blot analysis; format: functional, cell-based; conditions: dose 5-20 nM, time 12-48 hrs, TDE = time-dependent effect
[4] = system: A2780; experiment: Induction of apoptosis in human A2780 cells assessed as decrease in cleaved Bcl-xL level measured at 5 to 20 nM after 12 to 48 hrs by Western blot analysis; format: functional, cell-based; conditions: dose 5-20 nM, time 12-48 hrs
[5] = molecular target: MAP kinase p38 (Homo sapiens) (UniProt O15264+Q15759+Q16539+P53778); experiment: Activation of p38 in human A2780 cells assessed as increase phosphorylation of p38 at 5 to 20 nM measured after 24 hrs by Western blot analysis; format: cell-based; conditions: filed as activator, dose 5-20 nM
[6] = system: A2780; experiment: Induction of apoptosis in human A2780 cells assessed as late apoptotic cells at 800 nM measured after 24 hrs by Annexin V-FITC/PI flow cytometry (reference value: 1.58%); format: functional
[7] = system: A2780; experiment: Induction of apoptosis in human A2780 cells assessed as viable cells in presence of bafilomycin A1 at 800 nM measured after 24 hrs by Annexin V-FITC/PI flow cytometry (reference value: 96.1%); format: functional
[8] = system: A2780; experiment: Antiproliferative activity against human A2780 cells assessed as number of fluorescent dots in presence of SB203580 at 4 nM measured after 24 hrs by KitkFluor555 Click-iT EdU Kit staining assay; format: functional, cell-based
[9] = system: A2780; experiment: Induction of apoptosis in human A2780 cells assessed as early apoptotic cells at 8 nM measured after 24 to 72 hrs by Annexin V-FITC/PI flow cytometry (reference value: 2.82%); format: functional; conditions: time 24-72 hrs
[10] = system: A2780; experiment: Induction of apoptosis in human A2780 cells assessed as late apoptotic cells at 8 nM measured after 24 to 72 hrs by Annexin V-FITC/PI flow cytometry (reference value: 2.54%); format: functional; conditions: time 24-72 hrs
[11] = system: A2780; experiment: Induction of apoptosis in human A2780 cells assessed as necrotic cells at 8 nM measured after 24 to 72 hrs by Annexin V-FITC/PI flow cytometry (reference value: 0.39%); format: functional; conditions: time 24-72 hrs
[12] = system: A2780; experiment: Induction of apoptosis in human A2780 cells assessed as early apoptotic cells at 4 nM measured after 24 hrs by Annexin V-FITC/PI flow cytometry (reference value: 2.82%); format: functional
[13] = system: A2780; experiment: Induction of apoptosis in human A2780 cells assessed as necrotic cells at 4 nM measured after 24 hrs by Annexin V-FITC/PI flow cytometry (reference value: 0.39%); format: functional
[14] = system: A2780; experiment: Induction of apoptosis in human A2780 cells assessed as early apoptotic cells in presence of p53 SiRNA 1 at 4 nM measured after 24 hrs by Annexin V-FITC/PI flow cytometry (reference value: 2.82%); format: functional
[15] = system: A2780; experiment: Induction of apoptosis in human A2780 cells assessed as late apoptotic cells in presence of p53 SiRNA 1 at 4 nM measured after 24 hrs by Annexin V-FITC/PI flow cytometry (reference value: 2.54%); format: functional
[16] = system: A2780; experiment: Induction of apoptosis in human A2780 cells assessed as necrotic cells in presence of p53 SiRNA 1 at 4 nM measured after 24 hrs by Annexin V-FITC/PI flow cytometry (reference value: 0.39%); format: functional
[17] = system: A2780; experiment: Reduction in p62 expression in human A2780 cells at 5 to 20 nM measured after 24 hrs by Western blot analysis; format: functional, cell-based; conditions: dose 5-20 nM
[18] = system: A2780; experiment: Reduction in p62 expression in human A2780 cells in presence of autophagy inhibitor bafilomycin A1 at 5 to 20 nM measured after 24 hrs by Western blot analysis; format: functional, cell-based; conditions: dose 5-20 nM
[19] = system: A2780; experiment: Induction of cell cycle arrest in human A2780 cells assessed as accumulation of cells at G1 phase at 1 nM measured after 24 hrs by PI staining based ell Cycle Analysis Kit (KeyGEN) (reference value: 53.9%); format: functional
[20] = system: A2780; experiment: Induction of cell cycle arrest in human A2780 cells assessed as accumulation of cells at S phase at 4 nM measured after 24 hrs by PI staining based ell Cycle Analysis Kit (KeyGEN) (reference value: 10%); format: functional
[21] = system: A2780; experiment: Induction of cell cycle arrest at S phase in human A2780 cells assessed as increase in cyclin B1 proteins measured after 24 hrs by Western blot analysis; format: functional, cell-based; conditions: dose 5-20 nM
[22] = system: A2780; experiment: Induction of cell cycle arrest in human A2780 cells assessed as accumulation of cells at S phase at 4 nM measured after 24 hrs by PI staining based Cell Cycle Analysis Kit (KeyGEN) (reference value: 15%); format: functional
[23] = system: A2780; experiment: Induction of cell cycle arrest in human A2780 cells assessed as accumulation of cells at G1 phase at 4 nM measured after 24 hrs by PI staining based Cell Cycle Analysis Kit (KeyGEN) (reference value: 54.2%); format: functional
[24] = system: A2780; experiment: Induction of cell cycle arrest in human A2780 cells assessed as accumulation of cells at G2 phase at 4 nM measured after 24 hrs by PI staining based Cell Cycle Analysis Kit (KeyGEN) (reference value: 24.5%); format: functional
[25] = system: A2780; experiment: Induction of cell cycle arrest in human A2780 cells assessed as accumulation of cells at G2 phase in presence of SB203580 at 4 nM measured after 24 hrs by PI staining based Cell Cycle Analysis Kit (KeyGEN) (reference value: 24.5%); format: functional
[26] = system: A2780; experiment: In vivo antitumor activity against human A2780 cells subcutaneously inoculated in BALB/c-nu mouse assessed as inhibition of tumor growth at 3 to 5 mg/kg, ip administered every day for 20 days; format: functional, organism-based; conditions: dose 3-5 mg/kg, time 20.0 day
[27] = Toxicity in BALB/c-nu mouse subcutaneously inoculated with human A2780 cells assessed as morphological changes of lung at 3 to 5 mg/kg, ip administered every day for 20 days by HE staining analysis; format: organism-based; conditions: in vivo, sc, 480 h, dose 3-5 mg/kg, time 20 day

CC(C)[C@]12O[C@H]1[C@@H]1O[C@]13[C@]1(O[C@H]1C[C@H]1C4=C(CC[C@@]13C)C(=O)OC4)[C@@H]2O [TRIPTOLIDE]
IC50 [1]: 803 nM
Activity [2]: Dose-Dependent Effect
Activity [3]: Tde
Activity [4]: Dose-Dependent Effect
Activity [5]: Active
Activity [6]: 9.01%
Activity [7]: 90.3%
Activity [8]: inactive
Activity [9]: 18.6%
Activity [10]: 20%
Activity [11]: 5.59%
Activity [12]: 29.5%
Activity [13]: 9.88%
Activity [14]: 11.7%
Activity [15]: 14.3%
Activity [16]: 8.18%
Activity [17]: Active
Activity [18]: inactive
Activity [19]: 67.3%
Activity [20]: 30.5%
Activity [21]: Dose-Dependent Effect
Activity [22]: 29.4%
Activity [23]: 40%
Activity [24]: 27.4%
Activity [25]: 31.1%
Activity [26]: Active
Activity [27]: Non-Toxic
